Reference: article PMC9029529, “Distinct Mechanisms of Cytotoxicity in Novel Nitrogenous Heterocycles: Future Directions for a New Anti-Cancer Agent” (Molecules, 2022)

What was measured:
MCF-10A cells = test: MTT assay, MCF-10A; type: cell-based, human; conditions: for IC50: Homo sapiens, MCF-10A, 24 h, 0 to 250 μM, read-out: IC50 Non-Malignant Breast Epithelial Cells (MCF-10A)
Experimental: (§1) To establish the cytotoxic effect of the nitrogenous derivatives, cells were treated with various concentrations of the drugs ranging from 0 to 250 μM. Following a 24 h incubation period, cell viability was assessed using the MTT assay. Mitoxantrone served as a positive control to evaluate growth inhibition. Since heterogeneity is a hallmark of cancer, the study included cell lines with diverse genomic and proteomic profiles. […] In this regard, further optimization would be required to increase the selective therapeutic potential of compound 9. To determine whether the anti-proliferative effect of the nitrogen derivatives could be translated to other malignancies, we tested the cytotoxic effect on the HCT8 (colorectal cancer) cell line. HCT8 is an adenocarcinoma driven by the Kirsten Rat Sarcoma (KRAS) mutation, unlike MCF-10A [28].
(§2) The MTT assay was utilized to examine the imidazole derivatives’ anti-proliferative activity against MCF-10A, MDA-MB-231, and HCT8 cell lines, purchased from ATCC, USA [47]. Firstly, 5 × 10^3 cells/well were seeded in a 96-well plate in 100 μL of growth medium and were subsequently cultured overnight with various concentrations of each compound ranging from 0 to 250 µM [48]. The media was aspirated, and 50 µL of serum-free media and 50 µL of MTT solution were added to each well. Next, cells were incubated at 37 °C for 3 h, then 150 µL of MTT solvent was added into each well. After that, plates were wrapped in foil and agitated for 15 min on an orbital shaker. Finally, the absorbance was measured within 1 h at OD590 nm. Half-maximal inhibitory concentration IC50 values (μM) were calculated for each compound from the dose–response curve. Experiments were performed in triplicates.

KAIMRC2 cells = test: CellTiter-Glo assay, KAIMRC2; type: cell-based; conditions: Homo sapiens, 24 h, read-out: IC50 Breast Cancer KAIMRC2
Experimental: (§3) To validate the anti-proliferative activity of the imidazole derivatives, the compounds were tested against several cancer cell lines, which included breast cancer (MDA-MB-231, KAIMRC1, and KAIMRC2), colorectal cancer (HCT8), and acute promyelocytic leukemia cells (HL60). KAIMRC1 was isolated from a person with stage II-B breast cancer and is ER+/PR+ and HER2-. In comparison, KAIMRC2 was isolated from a person with metastasized breast cancer and is a triple-negative (ER-/PR-, and HER2-) tumor cell line.
(§4) The CellTiter-Glo assay (Promega™, Madison, WI, USA) was used to evaluate imidazole and oxazolone derivatives cytotoxicity against various cancer cell lines; MCF-10A, HL60, MDA-MB-231, and HCT8, purchased from ATCC, USA, except KAIMRC1 and KAIMRC2, which were isolated, established, and characterized in the core laboratory facility KAIMRC, Riyadh, Saudi Arabia. The cells were seeded in white 96-well plates at a density of 5 × 10^3 cells/well in a 100 μL of growth medium with various concentrations of each compound ranging from 0 to 250 µM. Cells were incubated at 37 °C for 24 h. Plates were equilibrated at RT for 30 min. A quantity of 100 µL of CellTiter-Glo reagent was added to each well and mixed for 2 min on an orbital shaker. Plates were incubated for 10 min at RT before measuring the luminescence using an Envision plate reader (Perkin Elmer). Half-maximal inhibitory concentration IC50 values (μM) were calculated for each imidazole derivative from the dose–response curve. The cytotoxic effect at a concentration <10 µM was considered strongly active and from 11 to 100 µM was considered moderately active, whereas above 100 µM was deemed non-active. Mitoxantrone was utilized as a positive control. Experiments were performed in triplicates.

KAIMRC1 cells = test: CellTiter-Glo assay, KAIMRC1; type: cell-based; conditions: Homo sapiens, 24 h, read-out: IC50 Breast Cancer KAIMRC1
Experimental: as §3, §4

HCT8 cells [1] = test: MTT assay, HCT8; type: cell-based; conditions: Homo sapiens, HCT-8, 24 h, 0 to 250 μM, read-out: IC50 Colorectal Cancer (HCT8)
Experimental: as §1, §2

[2] = tested on: tubulin in MDA-MB-231 cells; test: Tubulin staining and imaging (microtubular network); type: cell-based, human; conditions: 48 h; for effect on the microtubular network / tubulin: MDA-MB-231, 15.6 and 31 µM
Text: An established cytotoxic mechanism of action of some nitrogenous heteroaromatic compounds is through the inhibition of tubulin. Normal microtubule function is essential during mitosis for mitotic spindle formation to allow chromatid separation, without which cell replication would cease. In addition, microtubules are critical for maintaining the cytoskeletal integrity of normal cells. Currently used cytotoxic anti-neoplastic classes of drugs such as the taxanes and vinca alkaloids also either inhibit microtubule assembly or disassembly, thus preventing mitosis from occurring. Therefore, we investigated the effects of compounds 8 and 9 on the modulation of microtubule function by assessing their effect on tubulin.
MDA- MB 231 cells were treated with compounds 8 and 9 at two concentrations, 15.6 and 31.25 µM, for 48 h. The cells were stained with tubulin tracker™ Green (Cat #T34075) in HBSS for 30 min and nucleus stain HOECHST33342 (blue) for 5 min. The samples were imaged with Zeiss laser-scanning 780 microscopes.
Following the standard protocol, tubulin and microtubule-associated proteins (MAPs) were developed, accompanied by two cycles of polymerization and depolymerization. MDA-MB231 cells were treated with compounds 8 and 9 at concentrations of 31.25 and 15.6 µM for 48 h. Subsequently, the media was replaced with HBSS, and the MDA-MB231 cells were stained with tubulin tracker™ Green 51(Cat #T34075) for 30 min and HOECHST33342 for 5 min. The Zeiss laser-scanning 780 microscope was used for imaging.

MDA-MB-231 cells [3] = test: MTT assay, MDA-MB-231; type: cell-based, human; conditions: 0 to 250 μM, read-out: IC50 Breast Cancer (MDA-MB-231)
Experimental: as §1, §2

HCT8 cells [4] = test: CellTiter-Glo assay, HCT8; type: cell-based; conditions: Homo sapiens, HCT-8, 24 h, read-out: IC50 Colorectal Cancer HCT8
Experimental: as §3, §4

MDA-MB-231 cells [5] = test: CellTiter-Glo assay, MDA-MB-231; type: cell-based; conditions: Homo sapiens, 24 h, read-out: IC50 Breast Cancer MDA-MB-231
Experimental: as §3, §4

| SMILES | IC50 (MCF-10A cells) [µM] | IC50 (KAIMRC2 cells) [µM] | IC50 (KAIMRC1 cells) [µM] | IC50 (HCT8 cells [1]) [µM] | microtubule inhibition ([2]; MDA-MB-231, 31 µM) | effect on the microtubular network / tubulin [2] | IC50 (MDA-MB-231 cells [3]; Homo sapiens, MDA-MB-231, 24 h) [µM] | IC50 (HCT8 cells [4]) [µM] | IC50 (MDA-MB-231 cells [5]) [µM] | IC50 in MCF-10A relative to MDA-MB231 (cytotoxic selectivity) (MCF-10A cells) | IC50 (MDA-MB-231 cells [3]; 24 h) [µM] |
| --- | --- | --- | --- | --- | --- | --- | --- | --- | --- | --- | --- |
| COc1cccc(/C=C2\N=C(c3ccccc3)N(Nc3ccc([N+](=O)[O-])cc3[N+](=O)[O-])C2=O)c1 [Compound 9] | 9.52 | 27.1 | 22.2 | 13.2 | nearly complete microtubule inhibition | interfered with the microtubular network | 17 | 22.1 | 39.2 |  |  |
| O=C1/C(=C/c2ccccc2)N=C(c2ccccc2)N1Nc1ccc([N+](=O)[O-])cc1[N+](=O)[O-] [Compound 8] | 30.7 | 31.6 | 10.2 | 29.5 |  | no effect on tubulin | 4.7 | 33.1 | 19 | six-fold higher | 4.76 |
